# Reference: patent US6358885B1, “Substituted phenylheterocyclic herbicides” (Mississippi State University, priority 1992, dated 2002)
# Experiments:
# Experiment in all cases: Test B preemergence/postemergence greenhouse plant response rating 0 to 10
# morningglory = type: in vivo, Ipomoea hederacea; settings: for Plant response rating, Morningglory: 0 to 10 scale
# Method in brief: (§1)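 Postemergence treatment of plants two to eighteen cm tall ran alongside preemergence treatment of planted seed, each using compound in a non-phytotoxic solvent.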
# crabgrass = type: in vivo, Digitaria spp.; settings: for Plant response rating, Crabgrass: 0 to 10 scale
# Method in brief: as §1
# blackgrass = type: in vivo, Alopecurus myosuroides; settings: for Plant response rating, Blackgrass: POSTEMERGENCE, 0 to 10 scale
# Method in brief: as §1
# soybean = type: in vivo, Glycine max; settings: for Plant response rating, Soybean: 0 to 10 scale
# Method in brief: as §1
# chickweed = type: in vivo, Stellaria media; settings: for Plant response rating, Chickweed: 0 to 10 scale
# Method in brief: as §1
# sugar beet = type: in vivo, Beta vulgaris; settings: for Plant response rating, Sugar beet: 0 to 10 scale
# Method in brief: as §1
# rice = type: in vivo, Oryza sativa; settings: for Plant response rating, Rice: 0 to 10 scale
# Method in brief: as §1
# velvetleaf = type: in vivo, Abutilon theophrasti; settings: for Plant response rating, Velvetleaf: 0 to 10 scale
# Method in brief: as §1
# sorghum = type: in vivo, Sorghum bicolor; settings: for Plant response rating, Sorghum: 0 to 10 scale
# Method in brief: as §1
# purple nutsedge = type: in vivo, Cyperus rotundus; settings: for Plant response rating, Nutsedge: 0 to 10 scale
# Method in brief: as §1
# cocklebur = type: in vivo, Xanthium pensylvanicum; settings: for Plant response rating, Cocklebur: 0 to 10 scale
# Method in brief: as §1
# cotton = type: in vivo, Gossypium hirsutum; settings: for Plant response rating, Cotton: 0 to 10 scale
# Method in brief: as §1
# wheat = type: in vivo, Triticum aestivum; settings: for Plant response rating, Wheat: 0 to 10 scale
# Method in brief: as §1
# barnyardgrass = type: in vivo, Echinochloa crus-galli; settings: for Plant response rating, Barnyardgrass: 0 to 10 scale
# Method in brief: as §1
# lambsquarters = type: in vivo, Chenopodium album; settings: for Plant response rating, Lambsquarter: 0 to 10 scale
# Method in brief: as §1
# bedstraw = type: in vivo, Galium aparine; settings: for Plant response rating, Bedstraw: 0 to 10 scale
# Method in brief: as §1
# giant foxtail = type: in vivo, Setaria faberii; settings: for Plant response rating, Giant foxtail: 0 to 10 scale
# Method in brief: as §1
# cheatgrass = type: in vivo, Bromus secalinus; settings: for Plant response rating, Cheatgrass: 0 to 10 scale
# Method in brief: as §1
# rape = type: in vivo, Brassica napus; settings: for Plant response rating, Rape: 0 to 10 scale
# Method in brief: as §1
# wild buckwheat = type: in vivo, Polygonum convolvulus; settings: for Plant response rating, Wild buckwheat: 0 to 10 scale
# Method in brief: as §1
# barley = type: in vivo, Hordeum vulgare; settings: for Plant response rating, Barley: 0 to 10 scale
# Method in brief: as §1
# corn = type: in vivo, Zea mays; settings: for Plant response rating, Corn: 0 to 10 scale
# Method in brief: as §1
# wild oat = type: in vivo, Avena fatua; settings: for Plant response rating, Wild oat: 0 to 10 scale
# Method in brief: as §1
structure (smiles),measurement,setting,value
Clc1cc(Cl)c(-c2nn3c(c2Cl)CCCC3)cc1OCC1CC1 [Compound 69],"Plant response rating, Morningglory","morningglory; POSTEMERGENCE, Rate 50 g/ha",7
same,"Plant response rating, Morningglory","morningglory; PREEMERGENCE, Rate 50 g/ha",0
same,"Plant response rating (0 to 10 scale), Morningglory","morningglory; PREEMERGENCE, Rate 200 g/ha",0
same,"Plant response rating, Morningglory","morningglory; Rate 200 g/ha, POSTEMERGENCE",7
same,"Plant response rating, Crabgrass","crabgrass; POSTEMERGENCE, Rate 50 g/ha",4
same,"Plant response rating, Crabgrass","crabgrass; PREEMERGENCE, Rate 50 g/ha",2
same,"Plant response rating (0 to 10 scale), Crabgrass","crabgrass; PREEMERGENCE, Rate 200 g/ha",5
same,"Plant response rating, Crabgrass","crabgrass; Rate 200 g/ha, POSTEMERGENCE",4
same,"Plant response rating, Blackgrass",blackgrass; Rate 50 g/ha,3
same,"Plant response rating (0 to 10 scale), Blackgrass","blackgrass; PREEMERGENCE, Rate 200 g/ha",2
same,"Plant response rating, Blackgrass",blackgrass; Rate 200 g/ha,5
same,"Plant response rating, Soybean","soybean; POSTEMERGENCE, Rate 50 g/ha",2
same,"Plant response rating, Soybean","soybean; PREEMERGENCE, Rate 50 g/ha",0
same,"Plant response rating (0 to 10 scale), Soybean","soybean; PREEMERGENCE, Rate 200 g/ha",0
same,"Plant response rating, Soybean","soybean; Rate 200 g/ha, POSTEMERGENCE",5
same,"Plant response rating, Chickweed","chickweed; POSTEMERGENCE, Rate 50 g/ha",2
same,"Plant response rating, Chickweed","chickweed; PREEMERGENCE, Rate 50 g/ha",0
same,"Plant response rating (0 to 10 scale), Chickweed","chickweed; PREEMERGENCE, Rate 200 g/ha",0
same,"Plant response rating, Chickweed","chickweed; Rate 200 g/ha, POSTEMERGENCE",3
same,"Plant response rating, Sugar beet","sugar beet; POSTEMERGENCE, Rate 50 g/ha",10
same,"Plant response rating, Sugar beet","sugar beet; PREEMERGENCE, Rate 50 g/ha",3
same,"Plant response rating (0 to 10 scale), Sugar beet","sugar beet; PREEMERGENCE, Rate 200 g/ha",6
same,"Plant response rating, Sugar beet","sugar beet; Rate 200 g/ha, POSTEMERGENCE",9
same,"Plant response rating, Rice","rice; POSTEMERGENCE, Rate 50 g/ha",5
same,"Plant response rating, Rice","rice; PREEMERGENCE, Rate 50 g/ha",0
same,"Plant response rating (0 to 10 scale), Rice","rice; PREEMERGENCE, Rate 200 g/ha",0
same,"Plant response rating, Rice","rice; Rate 200 g/ha, POSTEMERGENCE",6
same,"Plant response rating, Velvetleaf","velvetleaf; POSTEMERGENCE, Rate 50 g/ha",10
same,"Plant response rating, Velvetleaf","velvetleaf; PREEMERGENCE, Rate 50 g/ha",1
same,"Plant response rating (0 to 10 scale), Velvetleaf","velvetleaf; PREEMERGENCE, Rate 200 g/ha",9
same,"Plant response rating, Velvetleaf","velvetleaf; Rate 200 g/ha, POSTEMERGENCE",9
same,"Plant response rating, Sorghum","sorghum; POSTEMERGENCE, Rate 50 g/ha",4
same,"Plant response rating, Sorghum","sorghum; PREEMERGENCE, Rate 50 g/ha",0
same,"Plant response rating (0 to 10 scale), Sorghum","sorghum; PREEMERGENCE, Rate 200 g/ha",0
same,"Plant response rating, Sorghum","sorghum; Rate 200 g/ha, POSTEMERGENCE",6
same,"Plant response rating, Nutsedge","purple nutsedge; POSTEMERGENCE, Rate 50 g/ha",2
same,"Plant response rating, Nutsedge","purple nutsedge; PREEMERGENCE, Rate 50 g/ha",0
same,"Plant response rating (0 to 10 scale), Nutsedge","purple nutsedge; PREEMERGENCE, Rate 200 g/ha",0
same,"Plant response rating, Nutsedge","purple nutsedge; Rate 200 g/ha, POSTEMERGENCE",2
same,"Plant response rating, Cocklebur","cocklebur; POSTEMERGENCE, Rate 50 g/ha",8
same,"Plant response rating, Cocklebur","cocklebur; PREEMERGENCE, Rate 50 g/ha",0
same,"Plant response rating (0 to 10 scale), Cocklebur","cocklebur; PREEMERGENCE, Rate 200 g/ha",0
same,"Plant response rating, Cocklebur","cocklebur; Rate 200 g/ha, POSTEMERGENCE",8
same,"Plant response rating, Cotton","cotton; POSTEMERGENCE, Rate 50 g/ha",10
same,"Plant response rating, Cotton","cotton; PREEMERGENCE, Rate 50 g/ha",0
same,"Plant response rating (0 to 10 scale), Cotton","cotton; PREEMERGENCE, Rate 200 g/ha",0
same,"Plant response rating, Cotton","cotton; Rate 200 g/ha, POSTEMERGENCE",10
same,"Plant response rating, Wheat","wheat; POSTEMERGENCE, Rate 50 g/ha",4
same,"Plant response rating, Wheat","wheat; PREEMERGENCE, Rate 50 g/ha",0
same,"Plant response rating (0 to 10 scale), Wheat","wheat; PREEMERGENCE, Rate 200 g/ha",2
same,"Plant response rating, Wheat","wheat; Rate 200 g/ha, POSTEMERGENCE",6
same,"Plant response rating, Barnyardgrass","barnyardgrass; POSTEMERGENCE, Rate 50 g/ha",4
same,"Plant response rating, Barnyardgrass","barnyardgrass; PREEMERGENCE, Rate 50 g/ha",0
same,"Plant response rating (0 to 10 scale), Barnyardgrass","barnyardgrass; PREEMERGENCE, Rate 200 g/ha",1
same,"Plant response rating, Barnyardgrass","barnyardgrass; Rate 200 g/ha, POSTEMERGENCE",6
same,"Plant response rating, Lambsquarter","lambsquarters; POSTEMERGENCE, Rate 50 g/ha",8
same,"Plant response rating, Lambsquarter","lambsquarters; PREEMERGENCE, Rate 50 g/ha",9
same,"Plant response rating (0 to 10 scale), Lambsquarter","lambsquarters; PREEMERGENCE, Rate 200 g/ha",10
same,"Plant response rating, Lambsquarter","lambsquarters; Rate 200 g/ha, POSTEMERGENCE",8
same,"Plant response rating, Bedstraw","bedstraw; POSTEMERGENCE, Rate 50 g/ha",5
same,"Plant response rating, Bedstraw","bedstraw; PREEMERGENCE, Rate 50 g/ha",0
same,"Plant response rating (0 to 10 scale), Bedstraw","bedstraw; PREEMERGENCE, Rate 200 g/ha",6
same,"Plant response rating, Bedstraw","bedstraw; Rate 200 g/ha, POSTEMERGENCE",7
same,"Plant response rating, Giant foxtail","giant foxtail; POSTEMERGENCE, Rate 50 g/ha",5
same,"Plant response rating, Giant foxtail","giant foxtail; PREEMERGENCE, Rate 50 g/ha",2
same,"Plant response rating (0 to 10 scale), Giant foxtail","giant foxtail; PREEMERGENCE, Rate 200 g/ha",5
same,"Plant response rating, Giant foxtail","giant foxtail; Rate 200 g/ha, POSTEMERGENCE",5
same,"Plant response rating, Cheatgrass","cheatgrass; POSTEMERGENCE, Rate 50 g/ha",3
same,"Plant response rating, Cheatgrass","cheatgrass; PREEMERGENCE, Rate 50 g/ha",0
same,"Plant response rating (0 to 10 scale), Cheatgrass","cheatgrass; PREEMERGENCE, Rate 200 g/ha",4
same,"Plant response rating, Cheatgrass","cheatgrass; Rate 200 g/ha, POSTEMERGENCE",6
same,"Plant response rating, Rape","rape; POSTEMERGENCE, Rate 50 g/ha",6
same,"Plant response rating, Rape","rape; PREEMERGENCE, Rate 50 g/ha",2
same,"Plant response rating (0 to 10 scale), Rape","rape; PREEMERGENCE, Rate 200 g/ha",3
same,"Plant response rating, Rape","rape; Rate 200 g/ha, POSTEMERGENCE",8
same,"Plant response rating, Wild buckwheat","wild buckwheat; POSTEMERGENCE, Rate 50 g/ha",10
same,"Plant response rating, Wild buckwheat","wild buckwheat; PREEMERGENCE, Rate 50 g/ha",0
same,"Plant response rating (0 to 10 scale), Wild buckwheat","wild buckwheat; PREEMERGENCE, Rate 200 g/ha",0
same,"Plant response rating, Wild buckwheat","wild buckwheat; Rate 200 g/ha, POSTEMERGENCE",10
same,"Plant response rating, Barley","barley; POSTEMERGENCE, Rate 50 g/ha",4
same,"Plant response rating, Barley","barley; PREEMERGENCE, Rate 50 g/ha",0
same,"Plant response rating (0 to 10 scale), Barley","barley; PREEMERGENCE, Rate 200 g/ha",0
same,"Plant response rating, Barley","barley; Rate 200 g/ha, POSTEMERGENCE",4
same,"Plant response rating, Corn","corn; POSTEMERGENCE, Rate 50 g/ha",3
same,"Plant response rating, Corn","corn; PREEMERGENCE, Rate 50 g/ha",0
same,"Plant response rating (0 to 10 scale), Corn","corn; PREEMERGENCE, Rate 200 g/ha",0
same,"Plant response rating, Corn","corn; Rate 200 g/ha, POSTEMERGENCE",3
same,"Plant response rating, Wild oat","wild oat; POSTEMERGENCE, Rate 50 g/ha",3
same,"Plant response rating, Wild oat","wild oat; PREEMERGENCE, Rate 50 g/ha",0
same,"Plant response rating (0 to 10 scale), Wild oat","wild oat; PREEMERGENCE, Rate 200 g/ha",0
same,"Plant response rating, Wild oat","wild oat; Rate 200 g/ha, POSTEMERGENCE",4
